The text below walks through data of the NIST ThermoML archive (doi:10.1021/acs.jced.8b00844).

The conditions of series [1]: 298.15 K; 101.33 kPa; Liquid; Vibrating tube method.
Series [2] in a line: refractive index (Na D-line) (dimensionless). The settings on record: 298.15 K; 101.33 kPa; Liquid; Standard Abbe refractometry.

A word on the mass density: it is mass per unit of volume. For orientation: refractive index means a measure of how strongly the sample bends light.

Numbers after ± are expanded uncertainties.

Regarding `CC(=O)OC(C)C` [1-methylethyl ethanoate], the mass density in series [1] was 867.6 ± 16 kg/m3. Moreover, the refractive index in series [2] came to 1.3701 ± 0.012.

As for `O` [water], the refractive index in series [2] was 1.3325 ± 0.012. On to `CC(C)O` [propan-2-ol], for which the mass density in series [1] was found to be 781.4 ± 16 kg/m3. Further, the refractive index in series [2] was 1.375 ± 0.012.
